Data on two compounds can be found in patent EP0633262A1, “Novel isatineoxime derivatives, their preparation and use” (NEUROSEARCH A/S, priority 1993, dated 1995).

For the experiment, the target named is AMPA ((RS)-α-amino-3-hydroxy-5-methyl-4-isoxazolepropionic acid) binding site. The experiment is described as follows: AMPA binding assay (T. Honoré et al., Neuroscience Letters 54, 27-32 (1985)). The following applies: AMPA binding assay as described by T. Honoré et al.; read-out: IC₅₀. As to the method: In the same assay 8-Methyl-5,7,8,9-tetrahydro-1H-pyrrolo[3,2-h]isoquinoline-2,3-dione-3-oxime has an IC₅₀ of 0.2 µM.

The structures appear in SMILES notation.

With `CN1CC=C2CC=C3C(=NO)C(=O)NC3=C2C1` [Example 7, 8-Methyl-5,7,8,9-tetrahydro-1H-pyrrolo[3,2-h]isoquinoline-2,3-dione-3-oxime], the IC50 was 200 nM.
As for `CN1CC=C2C(=C3NC(=O)C(=NO)C3=CC2S(=O)(=O)N(C)C)C1` (centres unmarked) [Example 6, 5-dimethylsulfamoyl-8-Methyl-5,7,8,9-tetrahydro-1H-pyrrolo[3,2-h]isoquinoline-2,3-dione-3-oxime], the IC50 stood at 400 nM.
